Consider seven compounds from ChEMBL document CHEMBL1155582, “Bioactive constituents of Thuja occidentalis” (J Nat Prod, 2000).

The source made the active and inactive calls. No cut-off for these calls is given here.

Assay [1] can be described thus: Inhibition of 12-O-tetradecanoylphorbol 13-acetate-induced transformation of mouse JB6 cells after 14 days by soft agar transformation assay. The assay is classed as functional.
In assay [2] the target is T1, Ornithine decarboxylase (Mus musculus) (UniProt P00860).
T1 sequence (whole entry): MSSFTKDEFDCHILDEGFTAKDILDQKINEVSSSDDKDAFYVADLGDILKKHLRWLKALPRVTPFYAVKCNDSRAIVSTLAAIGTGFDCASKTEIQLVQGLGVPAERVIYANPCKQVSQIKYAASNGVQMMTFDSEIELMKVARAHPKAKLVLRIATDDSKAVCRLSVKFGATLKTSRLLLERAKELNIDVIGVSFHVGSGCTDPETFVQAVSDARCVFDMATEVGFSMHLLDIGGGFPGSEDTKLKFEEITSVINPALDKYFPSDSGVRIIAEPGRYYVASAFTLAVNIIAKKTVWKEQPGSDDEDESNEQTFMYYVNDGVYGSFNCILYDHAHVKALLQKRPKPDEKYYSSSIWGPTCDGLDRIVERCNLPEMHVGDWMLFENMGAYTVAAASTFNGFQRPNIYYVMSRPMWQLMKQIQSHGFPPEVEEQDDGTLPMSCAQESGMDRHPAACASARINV
Kind of assay: Inhibition of 12-O-tetradecanoylphorbol 13-acetate-induced ornithine decarboxylase activity in mouse ME308 cells. It is filed as cell-based.

Assay [3] can be described thus: (§1) Cytotoxicity against mouse JB6 cells by trypan blue exclusion test. It is filed as functional, cell-based.
In the next assay the test system is KB. Kind of assay: Cytotoxicity against human KB cells. It is filed as functional, cell-based.
A further assay has as its system JB6. The assay is described as §1. It is filed as functional, cell-based.

For the compound `CC1=C(/C=C/C(C)=C/C=C/C(C)=C\C(=O)O)C(C)(C)CCC1` [ISOTRETINOIN], the figures for the Activity in assay [1] and in assay [2] were 0.021 µM and 0.6 µM, respectively.

`C=C[C@]1(C)C=C2C(=O)C[C@@H]3[C@](C)(CCC[C@@]3(C)C(=O)O)[C@H]2CC1`: the IC50 (in assay [3]; in the assay on KB) was more than 60 µM in each case. Moreover, the Activity in assay [1] was 11.7 µM; in assay [2] it was 0.5 µM.

As to `C=C[C@@]1(C)CCC2=C(C1)C(=O)C[C@H]1[C@](C)(C(=O)O)CCC[C@]21C`, the IC50 (in assay [3]; in the assay on KB) was more than 60 µM throughout. In addition, the Activity in assay [1] was found to be 12.6 µM; in assay [2], 0.98 µM.

As for `C=C[C@@]1(C)CC[C@H]2C(=CC[C@@H]3[C@]2(C)CCC[C@@]3(C)C(=O)O)C1` [ISOPIMARIC ACID], the concentration for half-maximal inhibition (IC50) (in assay [3]; in the assay with KB) was more than 60 µM throughout. The Activity was found to be 13.2 µM in assay [1] and 0.86 µM in assay [2].

Take `COc1cc([C@@H]2c3cc4c(cc3C[C@H]3COC(=O)[C@@H]32)OCO4)cc(OC)c1OC` [DESOXYPODOPHYLLOTOXIN]: the outcome in the assay on JB6 was Active. For the same compound, the Activity in assay [1] was 0.004 µM; in assay [2], less than 0.08 µM.

On to `COc1cc([C@H]2c3cc4c(cc3C[C@H]3COC(=O)[C@H]32)OCO4)cc(OC)c1OC` [ISOPICRODEOXYPODOPHYLLOTOXIN], for which the outcome in the assay on JB6 was Active. Besides, the Activity in assay [1] turned out to be 0.18 µM; in assay [2], 0.55 µM.

For the compound `COc1cc(C[C@H]2C(=O)OC[C@@H]2Cc2ccc3c(c2)OCO3)cc(OC)c1OC`, the outcome in the assay on JB6 was Active. In addition, the Activity came out at 3.75 µM in assay [1] and 6.5 µM in assay [2].
